According to publication PMC10258805, “Nonpeptidic Oxazole-Based Prolyl Oligopeptidase Ligands with Disease-Modifying Effects on α-Synuclein Mouse Models of Parkinson’s Disease” (Journal of Medicinal Chemistry, 2023):
Like-named read-outs stand apart in the source and are kept apart here. Where a SMILES comes first, the peptide text is derived from it. The star is where a group is joined. Cbz = O=C(OCc1ccccc1)*

Tests used:
[1] = test system: αSyn dimerization in Neuro2A (N2A) cells; test: αSyn-dimerization assay (split Gaussia luciferase PCA); details: for effect on αSyn dimerization (in words): 10 μM, N2A cells; for activity at 10 µM: Mus musculus, N2a
[2] = test system: HEK-293 cells stably expressing GFP-LC3B; test: Autophagic flux (GFP-LC3B reporter cells)
recombinant porcine PREP = molecular target: T1, recombinant porcine PREP (Sus scrofa, UniProt P23687); test: PREP activity assay (inhibition of proteolytic activity); type: biochemical
T1 construct: made in house

[3] = test system: ROS production in SH-SY5Y cells; test: ROS detection assay under oxidative stress; details: Homo sapiens, 3 h
[4] = Suc-Gly-Pro-AMC as substrate, 95% CI in brackets, read-out: IC50 (nM) (95% CI)
[5] = Homo sapiens, HEK293, 24 h, read-out: Autophagy at 10 uM (%)
[6] = Homo sapiens, HEK293, 24 h, read-out: autophagy at 10 μM (%)
[7] = read-out: aSyn dimerization at 10 uM (%)
[8] = read-out: αSyn dimer. at 10 μM (%)
[9] = read-out: luminescence signal compared to the DMSO control (αSyn dimerization)
[10] = supplementary CSV, read-out: IC50
[11] = Homo sapiens, HEK293, 24 h, read-out: GFP signal of the DMSO control (autophagic flux)
[12] = read-out: ROS production, % of the control

T1 sequence (P23687 whole entry): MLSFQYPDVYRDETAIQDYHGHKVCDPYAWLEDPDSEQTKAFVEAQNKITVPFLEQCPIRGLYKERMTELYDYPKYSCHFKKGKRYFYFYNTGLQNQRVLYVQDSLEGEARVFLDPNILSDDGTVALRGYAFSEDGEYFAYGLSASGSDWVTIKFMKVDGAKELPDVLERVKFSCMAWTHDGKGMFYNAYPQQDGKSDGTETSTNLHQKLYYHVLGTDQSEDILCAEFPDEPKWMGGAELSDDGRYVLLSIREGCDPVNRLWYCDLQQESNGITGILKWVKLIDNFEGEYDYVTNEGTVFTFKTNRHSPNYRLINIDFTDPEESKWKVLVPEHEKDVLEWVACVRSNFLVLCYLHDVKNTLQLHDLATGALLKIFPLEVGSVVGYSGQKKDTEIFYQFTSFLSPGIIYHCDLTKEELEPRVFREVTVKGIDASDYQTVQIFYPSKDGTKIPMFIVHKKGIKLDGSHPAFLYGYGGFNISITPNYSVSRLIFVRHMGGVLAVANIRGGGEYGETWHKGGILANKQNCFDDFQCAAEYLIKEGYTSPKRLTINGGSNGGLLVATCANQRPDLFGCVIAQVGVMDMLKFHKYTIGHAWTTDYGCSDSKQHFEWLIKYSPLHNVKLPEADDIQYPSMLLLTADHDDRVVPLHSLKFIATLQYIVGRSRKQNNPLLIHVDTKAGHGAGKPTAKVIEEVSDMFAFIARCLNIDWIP

SMILES	effect on αSyn dimerization (in words) [1]	GFP signal compared to the DMSO control (in words) ([2]; 20 nM, autophagy inhibitor control)	IC50 (recombinant porcine PREP; [4])	activity at 10 µM [2, 5]	activity at 10 µM [2, 6]	activity at 10 µM [1, 7]	activity at 10 µM [1, 8]	activity at 10 µM ([3]; read-out: ROS at 10 uM (%))	activity at 10 µM ([3]; read-out: ROS at 10 μM (%))	inhibitory activity (in words) (recombinant porcine PREP)	activity at 10 µM [1, 9]	IC50 (recombinant porcine PREP; [10])	activity at 10 µM [2, 11]	IC50 (recombinant porcine PREP; read-out: IC50 value)	activity at 10 µM [3, 12]	activity at 0.5 µM [2, 11]
CC(C)C[C@@H](C=O)NC(=O)[C@H](CC(C)C)NC(=O)[C@H](CC(C)C)NC(=O)OCc1ccccc1 [MG-132, reference compound] (Cbz-Leu-Leu-Leu-aldehyde)	significantly increased αSyn dimerization															
CO/C1=C\C(C)=C\[C@@H](C)[C@@H](O)[C@@H](C)C/C(C)=C/C=C/[C@H](OC)[C@@H]([C@@H](C)[C@@H](O)[C@H](C)[C@@]2(O)C[C@@H](O)[C@H](C)[C@@H](C(C)C)O2)OC1=O [bafilomycin A1, Bafilomycin A1, reference compound]		significant effect														
C[C@H](NC(=O)CCCc1ccccc1)C(=O)N1CCC[C@H]1C#N [compound 2, reference compound]			3.3 nM	86%	86 ± 6%	105%	105 ± 14%	92%	92 ± 7%							
Cc1nc(CCCc2ccccc2)oc1N1CCC[C@@H]1C#N [compound 3, (R)-1-(4-Methyl-2-(3-phenylpropyl)oxazol-5-yl)pyrrolidine-2-carbonitrile]						94%	94 ± 8%	88%	88 ± 5%							
Cc1nc(CCCc2ccccc2)oc1N1CCCC[C@H]1C#N [compound 4, (S)-1-(4-Methyl-2-(3-phenylpropyl)oxazol-5-yl)piperidine-2-carbonitrile]			> 1e+06 nM	97%	97 ± 2%	86%	86 ± 19%			inactive	80 to 85%					
Cc1nc(CCCc2ccccc2)oc1N(CC#N)C(=O)C(F)(F)F [compound 5, N-(Cyanomethyl)-2,2,2-trifluoro-N-(4-methyl-2-(3-phenylpropyl)oxazol-5-yl)acetamide]				77%	77 ± 17%	112%	112 ± 6%			very low inhibitory activities		108000 nM	≤ 88%			
Cc1nc(CCCc2ccccc2)oc1N(C)CC#N [compound 6, 2-(Methyl(4-methyl-2-(3-phenylpropyl)oxazol-5-yl)amino)acetonitrile]				96%	96 ± 3%	109%	109 ± 6%	94%	94 ± 7%	very low inhibitory activities		12400 nM				
CC(C)c1nc(CCCc2ccccc2)oc1N1CCC[C@H]1C#N [compound 7, 4-Phenylbutanoyl-(4-isopropyl-2-oxazol-5-yl)-2(S)-cyanopyrrolidine]			156 nM	82%	82 ± 8%	82%	82 ± 13%	81%	81 ± 5%		80 to 85%		≤ 88%	156 to 445 nM	< 88%	
CC(C)Cc1nc(CCCc2ccccc2)oc1N1CCC[C@H]1C#N [compound 8, 4-Phenylbutanoyl-(4-isobutyl-2-oxazol-5-yl)-2(S)-cyanopyrrolidine]			4580 nM	81%	81 ± 11%	80%	80 ± 6%	83%	83 ± 7%		80 to 85%		≤ 88%		< 88%	
CC(C)(C)c1nc(CCCc2ccccc2)oc1N1CCC[C@H]1C#N [compound 9, (S)-1-(4-(tert-Butyl)-2-(3-phenylpropyl)oxazol-5-yl)pyrrolidine-2-carbonitrile]				103%	103 ± 3%	92%	92 ± 6%	86%	86 ± 10%	further reduced inhibitory activities		415000 nM			< 88%	
N#C[C@@H]1CCCN1c1oc(CCCc2ccccc2)nc1-c1ccccc1 [compound 10, 4-Phenylbutanoyl-(4-phenyl-2-oxazol-5-yl)-2(S)-cyanopyrrolidine]				104%	104 ± 6%	97%	97 ± 10%	77%	77 ± 8%	further reduced inhibitory activities		17400 nM			75%	
CSCCc1nc(CCCc2ccccc2)oc1N1CCC[C@H]1C#N [compound 11, (S)-1-(4-(2-(Methylthio)ethyl)-2-(3-phenylpropyl)oxazol-5-yl)pyrrolidine-2-carbonitrile]	comparable effect as KYP-2047		445 nM	92%	92 ± 5%	90%	90 ± 8%	101%	101 ± 8%					156 to 445 nM		
Cc1nc(CCCCc2ccccc2)oc1N1CCC[C@H]1C#N [compound 16, (S)-1-(4-Methyl-2-(4-phenylbutyl)oxazol-5-yl)pyrrolidine-2-carbonitrile]				89%	89 ± 6%	108%	108 ± 2%									
N#Cc1nc(CCCc2ccccc2)oc1N [compound 26, 5-Amino-2-(3-phenylpropyl)oxazole-4-carbonitrile]			> 1e+06 nM	96%	96 ± 4%	73%	73 ± 15%				≤ 75%					
N#Cc1nc(CCCc2ccccc2)oc1N1CCCC1 [compound 27, 2-(3-Phenylpropyl)-5-(pyrrolidin-1-yl)oxazole-4-carbonitrile]	comparable effect as KYP-2047			96%	96 ± 5%	88%	88 ± 6%			very weak inhibitors		75400 nM				
Cc1oc(CCCc2ccccc2)nc1C(=O)N1CCCC1 [compound 31, (5-Methyl-2-(3-phenylpropyl)oxazol-4-yl)(pyrrolidin-1-yl)methanone]				97%	97 ± 4%	117%	117 ± 11%			very low inhibitory activities		138000 nM				
Cc1oc(CCCc2ccccc2)nc1C(=O)N1CCC[C@H]1C(N)=O [compound 32, (S)-1-(5-Methyl-2-(3-phenylpropyl)oxazole-4-carbonyl)pyrrolidine-2-carboxamide]			> 1e+06 nM	98%	98 ± 3%					very low inhibitory activities						
CC(=O)N[C@@H](CSC(=O)[C@]1([C@@H](O)C(C)C)NC(=O)[C@H](C)[C@@H]1O)C(=O)O [lactacystin, reference compound]	significantly increased αSyn dimerization															
CO[C@H]1C[C@@H]2CC[C@@H](C)[C@@](O)(O2)C(=O)C(=O)N2CCCC[C@H]2C(=O)O[C@H]([C@H](C)C[C@@H]2CC[C@@H](O)[C@H](OC)C2)CC(=O)[C@H](C)/C=C(\C)[C@@H](O)[C@@H](OC)C(=O)[C@H](C)C[C@H](C)/C=C/C=C/C=C/1C [rapamycin, reference compound]																65%
